# Columns and labels:
# [1] = system: Trichoderma reesei cellulase composition; test: Nitrogen-containing compound effect(no GH61) on hydrolysis of AVICEL by T. reesei cellulase composition; type: biochemical; details: for reduction in hydrolysis: no GH61
# Experimental: The concentration of 1,2-benzenediamine compounds was 5 mM and the concentration of 2-aminophenol was 1 mM.
# The concentration of nitrogen-containing compounds was 5 mM.
# (§1) The concentration of the GH61 polypeptide was either 0.4 or 2 mg per g cellulose.
# [2] = system: Talaromyces stipitatus GH61 polypeptide; test: Effect of TEMPO on T. stipitatus GH61 during AVICEL hydrolysis by T. reesei cellulase composition; type: biochemical; details: GH61 0.4 or 2 mg per g cellulose, day 7
# Experimental: as §1
# [3] = biological target: Trichoderma reesei GH61B polypeptide (Trichoderma reesei, UniProt Q7Z9M7); test: Effect of TEMPO on T. reesei GH61B during AVICEL hydrolysis by T. reesei cellulase composition; type: biochemical; details: GH61 0.4 or 2 mg per g cellulose, day 7
# Sequence of Trichoderma reesei GH61B polypeptide (Q7Z9M7 20-249): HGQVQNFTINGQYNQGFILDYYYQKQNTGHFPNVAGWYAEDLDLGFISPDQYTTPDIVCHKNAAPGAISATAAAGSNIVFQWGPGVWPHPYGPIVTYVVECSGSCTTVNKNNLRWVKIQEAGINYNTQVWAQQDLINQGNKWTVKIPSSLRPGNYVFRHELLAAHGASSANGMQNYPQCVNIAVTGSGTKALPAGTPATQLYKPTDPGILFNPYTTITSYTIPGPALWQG
# Experimental: as §1
# [4] = system: Thielavia terrestris GH61E polypeptide; test: Effect of TEMPO on T. terrestris GH61E during AVICEL hydrolysis by T. reesei cellulase composition; type: biochemical
# Experimental: as §1
# [5] = biological target: Aspergillus fumigatus GH61B polypeptide (Aspergillus fumigatus, UniProt Q4WP32); test: Effect of TEMPO on A. fumigatus GH61B during AVICEL hydrolysis by T. reesei cellulase composition; type: biochemical; details: GH61 0.4 or 2 mg per g cellulose, day 7
# Experimental: as §1
# [6] = system: Penicillium pinophilum GH61A polypeptide; test: Effect of TEMPO on P. pinophilum GH61A during AVICEL hydrolysis by T. reesei cellulase composition; type: biochemical; details: GH61 0.4 or 2 mg per g cellulose, day 7
# Experimental: as §1
# [7] = system: Trichoderma reesei cellulase composition; test: Hydrolysis of AVICEL by T. reesei cellulase composition with and without GH61 polypeptide, no nitrogen-containing compound; type: biochemical
# Text: Microcrystalline cellulose was used as the source of the cellulosic material.
# [8] = system: T. reesei cellulase composition; test: AVICEL cellulolysis by T. reesei cellulase composition with combinations of compounds and various GH61 polypeptides; type: biochemical, Trichoderma reesei
# [9] = pterin dissolved in DMSO, cellulose 29.5 mg per ml, 7 days
# [10] = Example 6, 5 mM compound, 14 mg/ml AVICEL, 1, 3, 5, 7 or 8 days (FIG. 2 white bars)
molecule,measurement,setting,value
"Nc1ccccc1N [1,2-benzenediamine]",nitrogen-containing compound effect(no GH61),"[1]; 5 mM compound, 14 mg/ml AVICEL, 1, 5 and 8 days (FIG. 1A)",less than 1
"C[C@H](O)[C@H](O)[C@H]1CNc2nc(N)[nH]c(=O)c2N1.Cl.Cl [(6R)-5,6,7,8-tetrahydrobiopterin dihydrochloride]",nitrogen-containing compound effect(no GH61),"[1]; pterin dissolved in DMSO, cellulose 29.5 mg per ml, 3 days",0.924±0.0191
same,nitrogen-containing compound effect(no GH61),[1]; [9],0.901±0.0332
"CC1Nc2nc(N)[nH]c(=O)c2NC1C.Cl (stereo not shown) [6,7-dimethyl-5,6,7,8-tetrahydropterine hydrochloride]",nitrogen-containing compound effect(no GH61),"[1]; pterin dissolved in DMSO, cellulose 29.5 mg per ml, 1 day (so in the source)",0.715±0.00557
same,nitrogen-containing compound effect(no GH61),[1]; [9],0.684±0.0203
CC(C)=NO [acetone oxime],nitrogen-containing compound effect(no GH61),[1]; [10],less than 1
"CC1(C)CCCC(C)(C)N1[O] [TEMPO, 2,2,6,6-tetramethyl-1-piperidinyloxy]",GH61 effect,[2],greater than 1
same,nitrogen-containing compound effect(+GH61),[2],less than 1
same,GH61 effect,[3],greater than 1
same,nitrogen-containing compound effect(+GH61),[3],less than 1
same,nitrogen-containing compound effect(+GH61),"[4]; GH61 0.4 or 2 mg per g cellulose, 1, 3 and 7 days",~1
same,GH61 effect,"[4]; GH61 0.4 or 2 mg per g cellulose, day 1",greater than 1
same,GH61 effect,[5],greater than 1
same,nitrogen-containing compound effect(+GH61),[5]; late stage,less than 1
same,nitrogen-containing compound effect(no GH61),[1]; [10],less than 1
same,nitrogen-containing compound effect(no GH61),"[1]; Example 7, TEMPO, late stage of hydrolysis, day 7 (FIGS. 3A, 3B)",less than 1
same,GH61 effect,[6],greater than 1
same,nitrogen-containing compound effect(+GH61),[6],less than 1
O=C1NC(=O)C(=NO)C(=O)N1 [violuric acid],nitrogen-containing compound effect(no GH61),[1]; [10],very slightly impacted
ON=Cc1ccccn1 [pyridine-2-aldoxime],nitrogen-containing compound effect(no GH61),[1]; [10],slightly decreased
Nc1ccccc1O [2-aminophenol],nitrogen-containing compound effect(no GH61),"[1]; 1 mM 2-aminophenol, cellulose 29.5 mg per ml, 3 days",0.951±0.0198
same,nitrogen-containing compound effect(no GH61),"[1]; 1 mM 2-aminophenol, cellulose 29.5 mg per ml, 7 days",0.902±0.0301
same,reduction in hydrolysis,"[1]; 1 mM 2-aminophenol, 3 days",approximately 5%
same,reduction in hydrolysis,"[1]; 1 mM 2-aminophenol, 7 days",approximately 10%
"T. aurantiacus GH61A polypeptide: GH61A polypeptide having cellulolytic enhancing activity, SEQ ID NO: 14, recombinantly prepared in Aspergillus oryzae JaL250 (protein, listed as Thermoascus aurantiacus) MSFSKIIATAGVLASASLVAGHGFVQNIVIDGKYYGGYLVNQYPYMSNPPEVIAWSTTATDLGFVDGTGYQTPDIICHRGAKPGALTAPVSPGGTVELQWTPWPDSHHGPVINYLAPCNGDCSTVDKTQLEFFKIAESGLINDDNPPGIWASDNLIAANNSWTVTIPTTIAPGNYVLRHEIIALHSAQNQDGAQNYPQCINLQVTGGGSDNPAGTLGTALYHDTDPGILINIYQKLSSYIIPGPPLYTG",Percent conversion of AVICEL,"[7]; 14 mg/ml AVICEL, cellulase 4 mg/g cellulose, GH61 0.4 mg/g where present, pH 5.0, 50° C., 1 day",16±1%
same,Percent conversion of AVICEL,"[7]; same conditions, 3 days",30±4%
same,Percent conversion of AVICEL,"[7]; same conditions, 5 days",42.7±0.9%
same,Percent conversion of AVICEL,"[7]; same conditions, 7 days",45±4%
same,Percent conversion of AVICEL,"[7]; same conditions, 8 days",52.9±0.8%
same,"overall conversion of AVICEL, comparison of GH61 polypeptides",[8]; most mixtures of compounds at 1 mM,greatest overall conversion
"A. fumigatus GH61B polypeptide: GH61 polypeptide having cellulolytic enhancing activity, SEQ ID NO: 30, recombinantly prepared in Aspergillus oryzae JaL355 (protein, listed as Aspergillus fumigatus) MTLSKITSIAGLLASASLVAGHGFVSGIVADGKYYGGYLVNQYPYMSNPPDTIAWSTTATDLGFVDGTGYQSPDIICHRDAKNGKLTATVAAGSQIEFQWTTWPESHHGPLITYLAPCNGDCATVDKTTLKFVKIAAQGLIDGSNPPGVWADDEMIANNNTATVTIPASYAPGNYVLRHEIIALHSAGNLNGAQNYPQCFNIQITGGGSAQGSGTAGTSLYKNTDPGIKFDIYSDLSGGYPIPGPALFNA","overall conversion of AVICEL, comparison of GH61 polypeptides",[8]; mixtures of compounds at 3 mM,highest overall conversion
